The record followed here is US20230117034A1, “PYRAZOLOTRIAZINES” (Bayer Aktiengesellschaft, priority 2019, published 2023).

The target in one assay is T1, CDK9/CycT1 (Homo sapiens, UniProt P50750).
T1 construct: Recombinant full-length His-tagged human CDK9 and CycT1; purchased Life Technologies PV4131; host or cells: insect cells
The experiment in a line: CDK9/CycT1 high ATP kinase assay (TR-FRET, 2 mM ATP). The note with it: 2 mM ATP (high ATP); median; read-out: CDK9/CyclinT1, 2 mM ATP (high ATP), IC50 (median). The class given is biochemical. The method, then: CDK9/CycT1-inhibitory activity of compounds of the present invention at a high ATP concentration after preincubation of enzyme and test compounds was quantified employing the CDK9/CycT1 TR-FRET assay as described in the following paragraphs.
Recombinant full-length His-tagged human CDK9 and CycT1, expressed in insect cells and purified by Ni-NTA affinity chromatography, were purchased from Life Technologies (Cat. No PV4131). As substrate for the kinase reaction biotinylated peptide biotin-Ttds-[…] (C-terminus in amide form) was used which can be purchased e.g. form the company JERINI peptide technologies (Berlin, Germany).
For the assay 50 nanoL of a 100 fold concentrated solution of the test compound in DMSO was pipetted into either a black low volume 384 well microtiter plate or a black 1536 well microtiter plate (both Greiner Bio-One, Frickenhausen, Germany), 2 microL of a solution of CDK9/CycT1 in aqueous assay buffer [50 millimol/L Tris/HCl pH 8.0, 10 millimol/L MgCl2, 1.0 millimol/L dithiothreitol, 0.1 millimol/L sodium ortho-vanadate, 0.01% (v/v) Nonidet-P40 (Sigma)] were added and the mixture was incubated for 15 min at 22° C. to allow pre-binding of the test compounds to the enzyme before the start of the kinase reaction. […] The concentration of CDK9/CycT1 was adjusted depending of the activity of the enzyme lot and was chosen appropriate to have the assay in the linear range, typical concentrations were in the range of 0.5 microg/ml.
The resulting mixture was incubated 1 h at 22° C. to allow the formation of complex between the phosphorylated biotinylated peptide and the detection reagents. Subsequently the amount of phosphorylated substrate was evaluated by measurement of the resonance energy transfer from the Eu-chelate to the streptavidine-XL. Therefore, the fluorescence emissions at 620 nm and 665 nm after excitation at 350 nm was measured in a TR-FRET reader, e.g. a Pherastar (BMG Labtechnologies, Offenburg, Germany) or a Viewlux (Perkin-Elmer). The ratio of the emissions at 665 nm and at […] was taken as the measure for the amount of phosphorylated substrate.

The test system of assay [1] is MDA-MB-231, human breast cancer cells. Put plainly: Proliferation assay MDA-MB-231 (crystal violet, 4 days). The assay is classed as cell-based. The following applies: Homo sapiens, MDA-MB-231, 96 h, MDA-MB-231 cells, median, read-out: Prolif-MDA MB-231, IC50-[mol/l] (median). The procedure:
Human tumour cells were originally obtained from the American Type Culture Collection (ATCC), or from the Deutsche Sammlung von Mikroorganismen und Zellkulturen (DSMZ, German Collection of Microorganisms and Cell Cultures). Cultivated tumour cells (CAL-120, human breast adenocarcinoma cells, DSMZ ACC-459; MDA-MB-231, human breast cancer cells, ATCC HTB-26) were plated at a density of 4,000 cells/well in a 96-well multititer plate in 200 microL of their respective growth medium supplemented 10% fetal calf serum. After 24 hours, the cells of one plate (zero-point plate) were stained with crystal violet (see below), while the medium of the other plates was supplemented with the test substances in various concentrations (0 micromol/L, as well as in the range of 0.01-10 micromol/L; the final concentration of the solvent dimethyl sulfoxide was adjusted to 0.1%) using a Tecan HP D300 Digital Dispenser. The cells were incubated for 4 days in the presence of test substances. Cell proliferation was determined by staining the cells with crystal violet: the cells were fixed by adding 20 microL/measuring point of an 11% glutaric aldehyde solution for 15 minutes at room temperature. After three washing cycles of the fixed cells with water, the plates were dried at room temperature. The cells were stained by adding 100 microL/measuring point of a 0.1% crystal violet solution (pH 3.0). After three washing cycles of the stained cells with water, the plates were dried at room temperature. The dye was dissolved by adding 100 microL/measuring point of a 10% acetic acid solution. The extinction was determined by photometry at a wavelength of 595 nm. The change of cell number, in percent, was calculated by normalization of the measured values to the extinction values of the zero-point plate (=0%) and the extinction of the untreated (0 μM) cells (=100%). The IC50 values (inhibitory concentration at 50% of maximal effect) were determined by means of a 4 parameter fit.

pIC50: −log10 of the molar value. Bounds are passed on as bounds.

T1 sequence (P50750 whole entry): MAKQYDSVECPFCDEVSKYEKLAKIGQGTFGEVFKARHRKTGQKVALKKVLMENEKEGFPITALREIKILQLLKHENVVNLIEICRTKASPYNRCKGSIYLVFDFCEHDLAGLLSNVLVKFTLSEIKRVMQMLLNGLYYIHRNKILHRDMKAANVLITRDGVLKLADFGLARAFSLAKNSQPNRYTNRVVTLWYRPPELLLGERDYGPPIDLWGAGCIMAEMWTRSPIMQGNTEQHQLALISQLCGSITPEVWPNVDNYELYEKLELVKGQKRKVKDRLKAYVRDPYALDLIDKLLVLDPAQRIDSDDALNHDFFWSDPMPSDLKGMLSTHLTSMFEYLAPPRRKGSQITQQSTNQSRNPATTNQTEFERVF
T1 sequence (O60563 whole entry partner): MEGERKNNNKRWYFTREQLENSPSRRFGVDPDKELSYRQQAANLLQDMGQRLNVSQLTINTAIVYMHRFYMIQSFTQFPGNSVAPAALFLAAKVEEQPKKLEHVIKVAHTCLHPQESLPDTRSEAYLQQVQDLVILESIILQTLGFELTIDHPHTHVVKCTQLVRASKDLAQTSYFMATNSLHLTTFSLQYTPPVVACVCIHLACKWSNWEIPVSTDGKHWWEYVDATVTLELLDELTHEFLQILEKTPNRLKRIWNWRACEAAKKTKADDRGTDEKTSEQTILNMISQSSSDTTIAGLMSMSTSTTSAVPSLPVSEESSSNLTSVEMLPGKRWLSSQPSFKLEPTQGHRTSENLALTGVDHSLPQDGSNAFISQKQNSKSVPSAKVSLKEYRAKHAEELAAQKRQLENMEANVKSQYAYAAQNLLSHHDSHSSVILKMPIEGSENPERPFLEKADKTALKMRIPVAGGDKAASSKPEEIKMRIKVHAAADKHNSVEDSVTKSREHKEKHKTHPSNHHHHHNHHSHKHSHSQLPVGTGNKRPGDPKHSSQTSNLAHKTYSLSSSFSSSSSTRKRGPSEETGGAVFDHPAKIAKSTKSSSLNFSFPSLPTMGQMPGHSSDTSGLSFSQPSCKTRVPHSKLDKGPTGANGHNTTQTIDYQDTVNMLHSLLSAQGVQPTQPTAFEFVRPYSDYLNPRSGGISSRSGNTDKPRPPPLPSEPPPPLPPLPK

Regarding `Brc1cnn2c(NCc3nc4ccccc4[nH]3)nc(N3CCN(C4CC4)CC3)nc12` [Example 138, N-[(1H-benzimidazol-2-yl)methyl]-8-bromo-2-(4-cyclopropylpiperazin-1-yl)pyrazolo[1,5-a][1,3,5]triazin-4-amine], the pIC50 on CDK9/CycT1 was less than 4.70; in assay [1] it was 6.25.

For the molecule `CN1CCN(c2nc(NCc3nc4ccccc4[nH]3)n3ncc(Br)c3n2)C(CO)C1` (stereo not shown) [Example 155, [1-[4-(1H-benzimidazol-2-ylmethylamino)-8-bromo-pyrazolo[1,5-a][1,3,5]triazin-2-yl]-4-methyl-piperazin-2-yl]methanol], the pIC50 on CDK9/CycT1 was less than 4.70; in assay [1], 6.76.

Consider `C[C@@H]1CN(c2nc(NCc3nnc(-c4ccccc4)[nH]3)n3ncc(Br)c3n2)CCN1C.O=CO` [Example 130, 8-bromo-2-[(3R)-3,4-dimethylpiperazin-1-yl]-N-[(5-phenyl-4H-1,2,4-triazol-3-yl)methyl]pyrazolo[1,5-a][1,3,5]triazin-4-amine formate], for which the pIC50 at CDK9/CycT1 was 5.31; in assay [1], 7.45.

Regarding `CC(C)c1cnn2c(NCc3nc4ccccc4[nH]3)nc(N3CCOC[C@@H]3C)nc12` [Example 6, N-[(1H-benzimidazol-2-yl)methyl]-2-[(3S)-3-methylmorpholin-4-yl]-8-(propan-2-yl)pyrazolo[1,5-a][1,3,5]triazin-4-amine], the pIC50 on CDK9/CycT1 is less than 4.79; in assay [1] it was 7.79.

Take `CN1CCN(c2nc(NCc3nnc(-c4cccc(F)c4)[nH]3)n3ncc(Br)c3n2)CC1` [Example 136, 8-bromo-N-{[5-(3-fluorophenyl)-4H-1,2,4-triazol-3-yl]methyl}-2-(4-methylpiperazin-1-yl)pyrazolo[1,5-a][1,3,5]triazin-4-amine]: the pIC50 at CDK9/CycT1 is 5.85; in assay [1], 7.58.

`FC(F)(F)CN1CCN(c2nc(NCc3nc4ccccc4[nH]3)n3ncc(Br)c3n2)CC1` [Example 139, N-[(1H-benzimidazol-2-yl)methyl]-8-bromo-2-[4-(2,2,2-trifluoroethyl)piperazin-1-yl]pyrazolo[1,5-a][1,3,5]triazin-4-amine]: the figures for the pIC50 (on CDK9/CycT1; in assay [1]) were less than 4.70 and 6.27, respectively.

As for `CN1CCN(c2nc(NCc3nc4c(F)c(F)ccc4[nH]3)n3ncc(C4CC4)c3n2)CC1` [Example 159, 8-cyclopropyl-N-[(4,5-difluoro-1H-benzimidazol-2-yl)methyl]-2-(4-methylpiperazin-1-yl)pyrazolo[1,5-a][1,3,5]triazin-4-amine], the pIC50 at CDK9/CycT1 is less than 4.70; in assay [1], 8.03.

Take `CC(C)c1cnn2c(NCc3nc4ccccc4[nH]3)nc(NCC(C)(C)O)nc12` [Example 10, 1-{[4-{[(1H-benzimidazol-2-yl)methyl]amino}-8-(propan-2-yl)pyrazolo[1,5-a][1,3,5]triazin-2-yl]amino}-2-methylpropan-2-ol]: the results for the pIC50 (on CDK9/CycT1; in assay [1]) were less than 4.70 and 7.10, respectively.

Turning to `Cc1ccc2[nH]c(CNc3nc(N4CCOCC4)nc4c(Br)cnn34)nc2c1` [Example 157, 8-bromo-N-[(5-methyl-1H-benzimidazol-2-yl)methyl]-2-(morpholin-4-yl)pyrazolo[1,5-a][1,3,5]triazin-4-amine], the pIC50 was less than 4.70 on CDK9/CycT1 and 8.32 in assay [1].

As for `Cc1cccc2[nH]c(CNc3nc(N4CCN(C)CC4)nc4c(Br)cnn34)nc12` [Example 151, 8-bromo-N-[(4-methyl-1H-benzimidazol-2-yl)methyl]-2-(4-methylpiperazin-1-yl)pyrazolo[1,5-a][1,3,5]triazin-4-amine], the results for the pIC50 (at CDK9/CycT1; in assay [1]) were less than 4.70 and 7.43, respectively.

Turning to `CCN1CCN(c2nc(NCc3nc4ccccc4[nH]3)n3ncc(Br)c3n2)CC1` [Example 137, N-[(1H-benzimidazol-2-yl)methyl]-8-bromo-2-(4-ethylpiperazin-1-yl)pyrazolo[1,5-a][1,3,5]triazin-4-amine], the pIC50 is less than 4.70 at CDK9/CycT1 and 6.72 in assay [1].

For `Fc1cccc(-c2nnc(CNc3nc(N4C[C@H]5C[C@@H]4CO5)nc4c(Br)cnn34)[nH]2)c1` [Example 153, 8-bromo-N-{[5-(3-fluorophenyl)-4H-1,2,4-triazol-3-yl]methyl}-2-[(1R,4R)-2-oxa-5-azabicyclo[2.2.1]heptan-5-yl]pyrazolo[1,5-a][1,3,5]triazin-4-amine], the pIC50 on CDK9/CycT1 was 5.91; in assay [1], 7.61.

As to `CC1CN(C)CCN1c1nc(NCc2nc3ccccc3[nH]2)n2ncc(Br)c2n1` (stereo not shown) [Example 156, N-(1H-benzimidazol-2-ylmethyl)-8-bromo-2-(2,4-dimethylpiperazin-1-yl)pyrazolo[1,5-a][1,3,5]triazin-4-amine], the pIC50 at CDK9/CycT1 was less than 4.70; in assay [1] it was 7.69.

`Brc1cnn2c(NCc3nc4ccccc4[nH]3)nc(N3C[C@@H]4CCCN[C@@H]4C3)nc12` [Example 146, N-[(1H-benzimidazol-2-yl)methyl]-8-bromo-2-[(4aS,7aS)-octahydro-6H-pyrrolo[3,4-b]pyridin-6-yl]pyrazolo[1,5-a][1,3,5]triazin-4-amine]: the pIC50 on CDK9/CycT1 is less than 4.70; in assay [1], 7.36.

`Cc1cccc2[nH]c(CNc3nc(N4CCOCC4)nc4c(Br)cnn34)nc12` [Example 150, 8-bromo-N-[(4-methyl-1H-benzimidazol-2-yl)methyl]-2-(morpholin-4-yl)pyrazolo[1,5-a][1,3,5]triazin-4-amine]: the results for the pIC50 (at CDK9/CycT1; in assay [1]) were less than 4.70 and 7.41, respectively.

For the molecule `C[C@H]1CN(c2nc(NCc3nc4ccccc4[nH]3)n3ncc(Br)c3n2)CCN1C` [Example 132, N-[(1H-benzimidazol-2-yl)methyl]-8-bromo-2-[(3S)-3,4-dimethylpiperazin-1-yl]pyrazolo[1,5-a][1,3,5]triazin-4-amine], the pIC50 at CDK9/CycT1 is less than 4.70; in assay [1], 7.37.

Regarding `COc1ccc2[nH]c(CNc3nc(N4CCOCC4)nc4c(Br)cnn34)nc2c1` [Example 160, 8-bromo-N-[(5-methoxy-1H-benzimidazol-2-yl)methyl]-2-(morpholin-4-yl)pyrazolo[1,5-a][1,3,5]triazin-4-amine], the pIC50 at CDK9/CycT1 is less than 4.70; in assay [1] it was 8.04.

Take `CN1CCN(c2nc(NCc3nc4cc(F)ccc4[nH]3)n3ncc(Br)c3n2)CC1` [Example 134, 8-bromo-N-[(5-fluoro-1H-benzimidazol-2-yl)methyl]-2-(4-methylpiperazin-1-yl)pyrazolo[1,5-a][1,3,5]triazin-4-amine]: the figures for the pIC50 (on CDK9/CycT1; in assay [1]) were less than 4.70 and 7.93, respectively.

With `C[C@@H]1CN(c2nc(NCc3nc4ccccc4[nH]3)n3ncc(Br)c3n2)CCN1C` [Example 135, N-[(1H-benzimidazol-2-yl)methyl]-8-bromo-2-[(3R)-3,4-dimethylpiperazin-1-yl]pyrazolo[1,5-a][1,3,5]triazin-4-amine], the pIC50 on CDK9/CycT1 was less than 4.70; in assay [1], 7.36.

For the molecule `C[C@@H]1CCCCN1c1nc(NCc2nc3ccccc3[nH]2)n2ncc(Br)c2n1` [Example 140, N-[(1H-benzimidazol-2-yl)methyl]-8-bromo-2-[(2R)-2-methylpiperidin-1-yl]pyrazolo[1,5-a][1,3,5]triazin-4-amine], the pIC50 on CDK9/CycT1 is less than 4.70; in assay [1], 6.50.
